Results on two compounds are retold here after US6518269B1, “Cancer treatment” (University of Arizona Foundation, priority 2000, dated 2003).

The subject of assay [1] is HT29 Colon Cancer. The experiment in a line: MTT growth inhibition assay, HT29 Colon Cancer. In kind it is cell-based. Particulars: Homo sapiens, HT-29, HT29 Colon Cancer cells. As for the experimental part:
(§1) Each of the following compounds was tested for growth inhibition in a MTT assay against B16 Murine Melanoma and HT29 Colon Cancer, reported as IC50(μM).

The subject of assay [2] is B16 Murine Melanoma. As to the kind of experiment: MTT growth inhibition assay, B16 Murine Melanoma. In kind it is cell-based. Particulars: Mus musculus, B16 Murine Melanoma cells. As for the experimental part:
as §1

Take `O=c1cnnc(N/N=C/c2ccccc2O)[nH]1` [Compound I, benzaldehyde, 2-hydroxy-, (4-hydro-5-oxo-1,2,4-triazin-3-yl)hydrazide]: the results for the IC50 in assay [1] and in assay [2] were 7 nM and 264 nM, respectively.
Taken in the same sequence, the figures for `Cc1nnc(N/N=C/c2ccccc2O)[nH]c1=O` [Compound II, benzaldehyde, 2-hydroxy-, (4-hydro-5-oxo-6-methyl-1,2,4-triazin-3-yl)hydrazide] were 19 nM and 1100 nM.
